# Experiment: oral absorption test in rats: plasma concentration of meropenem produced by hydrolysis, by HPLC
# Assay type: in vivo
# Details: 20 mg/kg oral, cilastatin 50 mg/kg pre-administered
# Procedure: An enzyme inhibitor (cilastatin) (50 mg/kg) was pre-administered to rats (3 per group) and the compound of the present invention (compound of Example 1, 20 mg/kg) was orally administered. The plasma concentration of meropenem produced by hydrolysis was measure at 0.125, 0.25, 0.5, 1.0, 1.5, 2.0 and 3.0 hr by HPLC and the area under plasma concentration-time curve (AUC) was determined.
compound,measurement,setting,value
"CCCC(=O)OCOC(=O)N1C[C@@H](SC2=C(C(=O)OCOC(=O)C(C)(C)C)N3C(=O)[C@H]([C@@H](C)O)[C@H]3[C@H]2C)C[C@H]1C(=O)N(C)C [Example 1, pivaloyloxymethyl (1R,5S,6S)-2-[(3S,5S)-(5-N,N-dimethylaminocarbonyl-1-butyryloxymethyloxycarbonyl)-pyrrolidin-3-ylthio]-6-[(1R)-1-hydroxyethyl]-1-methylcarbapen-2-em-3-carboxylate]",AUC0-3 hr,area under plasma concentration-time curve of meropenem,5060 ng·h/mL
same,Average plasma concentration,meropenem in plasma at 0.125 hr,0.62 µg/mL
same,Average plasma concentration,meropenem in plasma at 0.25 hr,1.31 µg/mL
same,Average plasma concentration,meropenem in plasma at 0.5 hr,2.31 µg/mL
same,Average plasma concentration,meropenem in plasma at 1.0 hr,2.59 µg/mL
same,Average plasma concentration,meropenem in plasma at 1.5 hr,2.27 µg/mL
same,Average plasma concentration,meropenem in plasma at 2.0 hr,1.56 µg/mL
same,Average plasma concentration,meropenem in plasma at 3.0 hr,0.55 µg/mL

# Reference: patent publication US20040176350A1, “Carbapenem compound” (priority 2001, published 2004)
